Experimental data: patent publication US9440957B2, “Compounds and compositions for modulating EGFR Activity” (Novartis AG, priority 2012, dated 2016)
Where two headings read alike, the source gives them in different places.

How the values were obtained:
[1] = biological target: human EGFR L858R (NIH/3T3 cells) (Homo sapiens, UniProt P00533, L858R); assay: EGFR target modulation in engineered NIH/3T3 cell lines (phospho-EGFR Y1068 AlphaLISA), EGFR L858R; format: cell-based; conditions: engineered NIH/3T3 cells, read-out: NIH3T3 IC50 (μM) EGFR (L858R)
Method in brief: (§1)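 Engineered NIH/3T3 cells expressing EGFR variants treated 3 h at 37 °C with 12-point 1:3 compound series (top stock 10 μM); only WT cells stimulated with 50 ng/ml EGF for 5 min before lysis. Phospho-Y1068 measured by AlphaLISA with total-EGFR antibody; IC50 from non-linear fitting.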

HEKn (EGFR WT) = HEKn (EGFR WT) (Homo sapiens, UniProt P00533); assay: EGFR target modulation in HEKn (EGFR-WT) cell line (phospho-EGFR Y1173 ELISA); format: cell-based; conditions: value outside parentheses
Description: EGFR Target Modulation in HEKn (EGFR-WT) Cell Line Tissue Culture. Human neonatal epithelial keratinocytes (Invitrogen #C-001-5C) were maintained in EpiLife media (Invitrogen #[…]) supplemented with growth factors (Invitrogen #S-001-5). Cells were harvested with 0.05% Trypsin/EDTA (Hyclone #SH30236.01) and quenched with 5% FBS/EpiLife media. […] The serial diluted compounds were transferred to the plate containing cells by using a 50 nl Pin Head device (Perkin Elmer) and the cells were placed back in the incubator for 3 hours. […] Phospho-EGFR (Y1173) ELISA. Solid white high-binding ELISA plates (Greiner #781074) were coated with 5 ug/ml anti-EGFR capture antibody (R&D Systems #AF231) overnight in 50 mM carbonate/bicarbonate pH 9.5 buffer. […] Wash steps were carried out with a Bio-Tek ELx405 SelectTM using 4 cycles of 100 ul TBS-T (20 mM Tris, 137 mM NaCl, 0.05% Tween-20) per well. […] Lysis was allowed to occur for 20 minutes on ice. A 25 ul aliquot was added to each well of the blocked ELISA plate and incubated overnight at 4° C. with gentle shaking. […] After washing, 1:2,000 anti-rabbit-HRP (Cell Signaling #7074) in 0.2% BSA/TBS-T was added and incubated for 1 hour at room temperature. Chemiluminescent detection was carried out with SuperSignal ELISA Pico substrate (ThermoScientific #37069). Signal was read on EnVision plate reader using built-in UltraLUM setting. Data Analysis. Control cells treated with EGF were set to 100% maximum response. […] With these parameters, the IC50's for each compound in each cell line was calculated using non-linear curve fitting analysis.

EGFR(L858R/T790M) = biological target: T1, EGFR(L858R/T790M) (Homo sapiens, UniProt P00533, L858R/T790M); assay: EGFR biochemical assay (HTRF), IC50 determinations
T1 construct: purchased from Carna (GST-a.a. 669-1210)
Method in brief: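 Two formats were run: compound preincubated at room temperature with enzyme and biotin-TK peptide before ATP starts the reaction, or no preincubation with enzyme added last. Reactions ran 60 min at room temperature and were stopped with EDTA. Phosphopeptide was read by HTRF (PT66K/SAXL, 1 h).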

[2] = biological target: human EGFR WT (NIH/3T3 cells, EGF-induced) (Homo sapiens, UniProt P00533); assay: EGFR target modulation in engineered NIH/3T3 cell lines (phospho-EGFR Y1068 AlphaLISA), EGFR WT; format: cell-based; conditions: engineered NIH/3T3 cells, read-out: NIH3T3 IC50 (μM) EGFR (WT)
Method in brief: as §1

H1975 (EGFR L858/T790M) = H1975 (EGFR L858/T790M) (Homo sapiens, UniProt P00533, L858R/T790M); assay: EGFR target modulation in H1975 cell line (phospho-EGFR Y1173 ELISA); format: cell-based
Description: (§2) EGFR Target Modulation in H1975, H3255 and HCC827 Cell Lines Tissue Culture. Cells were maintained in 10% FBS/RPMI supplemented with 100 μg/ml Penicillin/Streptomycin (Hyclone #SH30236.01). […] The cells were allowed to incubate overnight in a 37° C., 5% CO2 humidified tissue culture incubator. […] The serial diluted compounds were transferred to the plate containing cells by using a 50 nl Pin Head device (Perkin Elmer) and the cells were placed back in the incubator for 3 hours. Phospho-EGFR ([…]) Target Modulation Assay. The media was reduced to 20 ul using a Bio-Tek ELx 405 SelectTM plate washer. […] The plates were shaken at 4° C. for 20 minutes. An aliquot of 25 ul from each well was transferred to pEGFR(Y1173) ELISA plates for analysis. Phospho-EGFR ([…]) ELISA. Solid white high-binding ELISA plates (Greiner #781074) were coated with 5 ug/ml anti-EGFR capture antibody (R&D Systems #AF231) overnight in 50 mM carbonate/bicarbonate pH 9.5 buffer. Plates were blocked with 1% BSA (Sigma #A7030) in PBS for 1 hour at room temperature. Wash steps were carried out with a Bio-Tek ELx405 SelectTM using 4 cycles of 100 ul TBS-T (20 mM Tris, 137 mM NaCl, 0.05% Tween-20) per well. […] Lysis was allowed to occur for 20 minutes on ice. A 25 ul aliquot was added to each well of the blocked ELISA plate and incubated overnight at 4° C. with gentle shaking. […] After washing, 1:2,000 anti-rabbit-HRP (Cell Signaling #7074) in 0.2% BSA/TBS-T was added and incubated for 1 hour at room temperature. Chemiluminescent detection was carried out with SuperSignal ELISA Pico substrate (ThermoScientific #37069). Signal was read on EnVision plate reader using built-in UltraLUM setting. Data Analysis. Control cells treated with EGF were set to 100% maximum response. […] With these parameters, the IC50's for each compound in each cell line was calculated using non-linear curve fitting analysis.

H3255 (EGFR L858R) = H3255 (EGFR L858R) (Homo sapiens, UniProt P00533, L858R); assay: EGFR target modulation in H3255 cell line (phospho-EGFR Y1173 ELISA); format: cell-based
Description: as §2

[3] = biological target: human EGFR L858R/T790M (NIH/3T3 cells) (Homo sapiens, UniProt P00533, L858R/T790M); assay: EGFR target modulation in engineered NIH/3T3 cell lines (phospho-EGFR Y1068 AlphaLISA), EGFR L858R/T790M; format: cell-based; conditions: engineered NIH/3T3 cells, read-out: NIH3T3 IC50 (μM) EGFR (L858R/T790M)
Method in brief: as §1

[4] = EGFR (L858R/T790M) with 90 min pre-incubation, read-out: IC50 (μM) Column B
[5] = EGFR (L858R/T790M) with no pre-incubation, read-out: IC50 (μM) Column A

H1975 (EGFR L858/T790M), sequence (P00533 25-1210 T790M/L858R): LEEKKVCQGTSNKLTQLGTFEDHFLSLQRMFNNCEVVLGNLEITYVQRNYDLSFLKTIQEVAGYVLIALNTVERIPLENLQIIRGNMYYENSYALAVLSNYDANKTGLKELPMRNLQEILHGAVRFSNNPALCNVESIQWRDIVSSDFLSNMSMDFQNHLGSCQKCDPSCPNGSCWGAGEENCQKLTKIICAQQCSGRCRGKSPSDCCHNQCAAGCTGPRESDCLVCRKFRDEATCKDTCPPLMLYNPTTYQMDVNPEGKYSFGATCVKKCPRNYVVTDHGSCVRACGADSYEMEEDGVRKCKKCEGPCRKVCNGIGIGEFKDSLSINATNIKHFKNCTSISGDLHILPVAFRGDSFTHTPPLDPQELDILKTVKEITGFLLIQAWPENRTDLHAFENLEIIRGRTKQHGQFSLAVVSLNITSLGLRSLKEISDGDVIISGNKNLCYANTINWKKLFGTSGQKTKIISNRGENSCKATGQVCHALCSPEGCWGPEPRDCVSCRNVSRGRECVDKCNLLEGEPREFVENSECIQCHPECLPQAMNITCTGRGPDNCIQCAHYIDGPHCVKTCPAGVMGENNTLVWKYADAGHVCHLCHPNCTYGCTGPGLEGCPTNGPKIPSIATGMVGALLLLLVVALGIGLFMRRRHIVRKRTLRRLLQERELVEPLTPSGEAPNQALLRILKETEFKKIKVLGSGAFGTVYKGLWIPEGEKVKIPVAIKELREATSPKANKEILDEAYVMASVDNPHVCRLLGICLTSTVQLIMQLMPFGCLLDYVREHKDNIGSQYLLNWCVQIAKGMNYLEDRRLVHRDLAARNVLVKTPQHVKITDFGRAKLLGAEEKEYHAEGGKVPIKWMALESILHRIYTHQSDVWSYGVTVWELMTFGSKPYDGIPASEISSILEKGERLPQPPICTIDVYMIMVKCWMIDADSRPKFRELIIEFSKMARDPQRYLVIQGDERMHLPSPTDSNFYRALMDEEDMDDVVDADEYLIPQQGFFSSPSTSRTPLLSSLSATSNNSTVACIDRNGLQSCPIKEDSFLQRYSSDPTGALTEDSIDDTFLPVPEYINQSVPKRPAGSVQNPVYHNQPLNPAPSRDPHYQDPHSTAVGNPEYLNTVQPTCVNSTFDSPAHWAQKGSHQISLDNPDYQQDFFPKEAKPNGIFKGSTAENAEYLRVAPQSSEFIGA
human EGFR L858R/T790M (NIH/3T3 cells), sequence (P00533 25-1210 T790M/L858R): as above
human EGFR WT (NIH/3T3 cells, EGF-induced), sequence (P00533 25-1210): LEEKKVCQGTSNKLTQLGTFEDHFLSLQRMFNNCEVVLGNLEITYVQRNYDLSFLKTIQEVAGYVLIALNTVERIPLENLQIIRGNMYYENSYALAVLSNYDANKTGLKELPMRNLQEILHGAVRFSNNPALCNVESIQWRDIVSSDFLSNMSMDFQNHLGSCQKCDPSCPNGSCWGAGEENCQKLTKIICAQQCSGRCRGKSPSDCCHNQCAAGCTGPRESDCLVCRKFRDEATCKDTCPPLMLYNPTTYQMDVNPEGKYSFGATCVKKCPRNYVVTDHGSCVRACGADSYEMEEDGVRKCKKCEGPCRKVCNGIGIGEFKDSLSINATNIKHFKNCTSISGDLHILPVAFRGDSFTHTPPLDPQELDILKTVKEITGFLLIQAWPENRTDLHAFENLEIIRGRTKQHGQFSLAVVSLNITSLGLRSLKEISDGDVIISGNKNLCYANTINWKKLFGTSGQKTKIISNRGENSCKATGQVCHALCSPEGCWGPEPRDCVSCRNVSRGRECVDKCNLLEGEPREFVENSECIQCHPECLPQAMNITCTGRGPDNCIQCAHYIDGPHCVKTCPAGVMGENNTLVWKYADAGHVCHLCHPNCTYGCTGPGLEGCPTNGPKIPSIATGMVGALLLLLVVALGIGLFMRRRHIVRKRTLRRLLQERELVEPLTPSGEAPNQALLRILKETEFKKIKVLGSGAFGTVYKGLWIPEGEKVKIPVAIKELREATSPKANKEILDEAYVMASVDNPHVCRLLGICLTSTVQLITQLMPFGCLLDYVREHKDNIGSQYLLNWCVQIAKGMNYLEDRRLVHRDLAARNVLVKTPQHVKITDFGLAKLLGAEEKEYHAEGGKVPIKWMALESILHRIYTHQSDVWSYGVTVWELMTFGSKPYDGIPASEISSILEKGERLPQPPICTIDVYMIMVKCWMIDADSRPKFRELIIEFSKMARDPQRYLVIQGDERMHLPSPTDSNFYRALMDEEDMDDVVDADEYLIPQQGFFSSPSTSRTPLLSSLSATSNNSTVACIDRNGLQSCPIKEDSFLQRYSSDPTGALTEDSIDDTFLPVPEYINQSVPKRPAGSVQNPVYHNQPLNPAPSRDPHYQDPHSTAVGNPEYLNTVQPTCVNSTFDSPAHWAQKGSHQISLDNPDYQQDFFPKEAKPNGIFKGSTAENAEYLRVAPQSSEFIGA
HEKn (EGFR WT), sequence (P00533 25-1210): as above

| SMILES | IC50 [1] [µM] | IC50 (HEKn (EGFR WT)) [nM] | IC50 (EGFR(L858R/T790M); [4]) [µM] | IC50 (EGFR(L858R/T790M); [5]) [µM] | IC50 [2] [µM] | IC50 (H1975 (EGFR L858/T790M)) [nM] | IC50 (H3255 (EGFR L858R)) [nM] | IC50 [3] [µM] |
| --- | --- | --- | --- | --- | --- | --- | --- | --- |
| Cc1cccc2nc(NC(=O)c3cccc(C#N)c3)n(C3CCCCN(C(=O)/C=C/CN(C)C)C3)c12 (centres unmarked) [Example 17-42] | 0.002 | 206 | < 0.001 | < 0.002 | 0.053 | 2 | 13 | 0.002 |
| COc1ccc(C(=O)Nc2nc3cccc(C)c3n2C2CCCCN(C(=O)/C=C/CN(C)C)C2)cn1 (centres unmarked) [Example 17-45] | 0.002 | 142 | < 0.001 | 0.006 | 0.057 | 7 | 3 | 0.003 |
| Cc1cccc2nc(NC(=O)c3ccc(C(F)(F)F)nc3)n(C3CCCCN(C(=O)/C=C/CN(C)C)C3)c12 (centres unmarked) [Example 17-46] | 0.002 | 212 | 0.005 | 0.092 | 0.057 | 132 | 5 | 0.031 |
| Cc1ccc(C(=O)Nc2nc3cccc(C)c3n2C2CCCCN(C(=O)/C=C/CN(C)C)C2)cn1 (centres unmarked) [Example 17-47] | 0.002 | 186 | < 0.001 | 0.009 | 0.052 | 17 | 4 | 0.003 |
| COc1cc(C(=O)Nc2nc3cccc(C)c3n2C2CCCCN(C(=O)/C=C/CN(C)C)C2)ccn1 (centres unmarked) [Example 17-48] | 0.005 | 380 | < 0.001 | 0.007 | 0.122 | 10 | 7 | 0.004 |
| Cc1cccc2nc(NC(=O)c3cccc(S(C)(=O)=O)c3)n(C3CCCCN(C(=O)/C=C/CN(C)C)C3)c12 (centres unmarked) [Example 17-52] | 0.003 | 320 | < 0.001 | 0.002 | 0.103 | 2 | 5 | < 0.001 |
| Cc1cccc2nc(NC(=O)c3cccc(-n4cnnn4)c3)n(C3CCCCN(C(=O)/C=C/CN(C)C)C3)c12 (centres unmarked) [Example 17-53] | 0.003 | 261 | < 0.001 | 0.002 | 0.058 | 2 | 4 | 0.002 |
| Cc1nccc(C(=O)Nc2nc3cccc(C)c3n2C2CCCCN(C(=O)/C=C/CN(C)C)C2)n1 (centres unmarked) [Example 17-54] | 0.022 | 4900 | 0.005 | 0.09 | 0.56 | 78 | 81 | 0.041 |
| Cc1cccc2nc(NC(=O)c3ccnc(F)c3)n(C3CCCCN(C(=O)/C=C/CN(C)C)C3)c12 (centres unmarked) [Example 17-58] | 0.002 | 154 | < 0.001 | 0.005 | 0.026 | 3 | 9 | 0.002 |
| Cc1cccc2nc(NC(=O)c3cncc(C(F)(F)F)c3)n([C@@H]3CCCCN(C(=O)/C=C/CN(C)C)C3)c12 [Example 17-67] | 0.004 | 249 | < 0.001 | 0.003 | 0.05 | 2 | 15 | 0.001 |
| Cc1cncc(C(=O)Nc2nc3cccc(C)c3n2[C@@H]2CCCCN(C(=O)/C=C/CN(C)C)C2)c1 [Example 17-68] | 0.002 | 203 | < 0.001 | 0.003 | 0.023 | 2 | 8 | 0.001 |
| Cc1cccc2nc(NC(=O)c3cncc(F)c3)n([C@@H]3CCCCN(C(=O)/C=C/CN(C)C)C3)c12 [Example 17-69] | 0.001 | 71 | < 0.001 | 0.002 | 0.02 | 1 | 6 | < 0.001 |
| Cc1cccc2nc(NC(=O)c3cncc(-n4cccc4)c3)n([C@@H]3CCCCN(C(=O)/C=C/CN(C)C)C3)c12 [Example 17-70] | 0.001 | 185 | < 0.001 | < 0.001 | 0.035 | < 1 | 7 | < 0.001 |
| COc1cc(C(=O)Nc2nc3cccc(C)c3n2[C@@H]2CCCCN(C(=O)/C=C/CN(C)C)C2)ccn1 [Example 17-71] | 0.002 | 134 | < 0.001 | 0.002 | 0.029 | 2 | 3 | 0.002 |
| Cc1cc(C(=O)Nc2nc3cccc(C)c3n2[C@@H]2CCCCN(C(=O)/C=C/CN(C)C)C2)cc(C)n1 [Example 17-72] | 0.004 | 220 | < 0.001 | 0.004 | 0.063 | 3 | 12 | 0.001 |
| Cc1cc(C(=O)Nc2nc3cccc(C)c3n2[C@@H]2CCCCN(C(=O)/C=C/CN(C)C)C2)cc(Cl)n1 [Example 17-74] | 0.004 | 261 | < 0.001 | 0.003 | 0.076 | 2 | 11 | 0.002 |
| COc1cc(C(=O)Nc2nc3cccc(C)c3n2[C@@H]2CCCCN(C(=O)/C=C/CN(C)C)C2)cc(Cl)n1 [Example 17-75] | 0.025 | 3140 | < 0.001 | 0.017 | 0.218 | 26 | 85 | 0.007 |
| Cc1cccc2nc(NC(=O)c3ccnc(-c4ccccc4)c3)n([C@@H]3CCCCN(C(=O)/C=C/CN(C)C)C3)c12 [Example 17-76] | < 0.001 | 14 | < 0.001 | < 0.001 | 0.004 | < 1 | 1 | < 0.001 |
| Cc1cccc2nc(NC(=O)c3ccc(Cl)nc3)n([C@@H]3CCCCN(C(=O)/C=C/CN(C)C)C3)c12 [Example 17-77] | 0.001 | 24 | < 0.001 | 0.003 | 0.008 | 2 | 1 | 0.001 |
